From article PMC5007552, “The hVps34‐SGK3 pathway alleviates sustained PI3K/Akt inhibition by stimulating mTORC1 and tumour growth” (The EMBO Journal, 2016)

Key:
[1] = test system: S6K1; experiment: Immunoprecipitated S6K1 kinase activity (Crosstide) from treated ZR-75-1 cells; format: cell-based, human; conditions: 1 μM MK-2206, 1 h
Experimental: SGK3 (upper panel) and S6K1 (middle panel) were immunoprecipitated and subjected to in vitro kinase assay by measuring phosphorylation of the Crosstide substrate peptide in the presence of 0.1 mM [γ‐^32P]ATP in a 30 min 30°C reaction. Kinase reactions are presented as means ± SD for triplicate reaction. Immunoprecipitates (IP) were also analysed by immunoblot with the indicated antibodies. The cell lysates were also analysed by immunoblot using the indicated antibodies (lower panel).
Briefly, SGK3, Akt and S6K1 were immunoprecipitated from 1 mg ZR‐75‐1 cell lysate. Immunoprecipitates were washed in sequence with lysis buffer containing high salt concentration (500 mM NaCl), lysis buffer and Buffer A (50 mM Tris pH 7.5, 0.1 mM EGTA). Kinase activity was assessed by measuring [γ‐^32P]ATP incorporation into Crosstide substrate peptide [[…]]. The reactions were carried in 40 μl total volume containing 0.1 mM [γ‐^32P]ATP (400–1,000 cpm/pmol), 10 mM magnesium acetate and 30 μM Crosstide peptide. Reactions were terminated by adding 10 μl 0.1 M EDTA and spotting 40 μl of the resulting reaction mix on P81 paper, which were immediately immersed into 50 mM orthophosphoric acid. Papers were washed at least five times in 50 mM orthophosphoric acid, rinsed in acetone and air‐dried. Radioactivity was quantified by Cerenkov counting. […]

[2] = molecular target: S6K1 (Homo sapiens, UniProt P23443); experiment: IC50 on recombinant S6K1 (p70S6K); format: biochemical; conditions: Fig 5B / Appendix Fig S1B, recombinant kinase, unit inferred
Chain of S6K1 (Homo sapiens, UniProt P23443) (P23443 whole entry): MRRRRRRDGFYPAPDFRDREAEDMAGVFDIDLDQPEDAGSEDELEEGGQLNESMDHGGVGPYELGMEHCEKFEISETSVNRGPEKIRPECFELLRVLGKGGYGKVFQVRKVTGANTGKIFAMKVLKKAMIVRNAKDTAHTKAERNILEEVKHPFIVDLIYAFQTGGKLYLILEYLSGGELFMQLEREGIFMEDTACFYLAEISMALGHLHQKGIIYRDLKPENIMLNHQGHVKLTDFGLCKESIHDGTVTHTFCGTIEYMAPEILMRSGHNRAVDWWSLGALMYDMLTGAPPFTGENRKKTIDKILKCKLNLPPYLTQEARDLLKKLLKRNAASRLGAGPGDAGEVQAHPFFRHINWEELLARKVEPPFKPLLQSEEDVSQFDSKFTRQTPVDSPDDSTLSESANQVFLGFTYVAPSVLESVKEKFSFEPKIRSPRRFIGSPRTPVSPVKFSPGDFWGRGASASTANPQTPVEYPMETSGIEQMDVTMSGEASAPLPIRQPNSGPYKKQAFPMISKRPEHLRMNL
Experimental: The result for each kinase is presented as a mean kinase activity of the reaction taken in triplicate relative to a control reaction where the inhibitors were omitted. […] SGK3 was immunoprecipitated from cell lysates and subjected to in vitro kinase assay by measuring phosphorylation of the Crosstide substrate peptide in the presence of 0.1 mM [γ‐^32P]ATP in a 30 min 30°C reaction (upper panel). Kinase reactions are presented as means ± SD for triplicate reaction.
Appendix Figure S1. […] (A) Chemical struc tures of
Sano/f_i-14g, -14i and -14n compounds. (B) IC50 values of inhibitors on indicated recombinant k inases. […]

[3] = test system: BT-474c cells; experiment: Immunoblot of mTORC1 pathway markers in BT-474c cells; format: cell-based, human; conditions: 5 days 1 μM MK-2206, then 3 μM 14h 1 h
Experimental: SGK3 (upper panel) and S6K1 (middle panel) were immunoprecipitated and subjected to in vitro kinase assay by measuring phosphorylation of the Crosstide substrate peptide in the presence of 0.1 mM [γ‐^32P]ATP in a 30 min 30°C reaction. Kinase reactions are presented as means ± SD for triplicate reaction. Immunoprecipitates (IP) were also analysed by immunoblot with the indicated antibodies. The cell lysates were subjected to immunoblot analysis using the indicated antibodies (bottom panel). Source data are available online for this figure.
HEK293 cells were purchased from the American Tissue Culture Collection (ATCC). Cells were cultured in RPMI or DMEM media supplemented with 10% (v/v) foetal bovine serum, 2 mM L‐glutamine, 100 U/ml penicillin and 0.1 mg/ml streptomycin. Inhibitor treatments were carried out as described in figure legends. During 5 days inhibitor treatments, the media was changed after 72‐h intervals. The cells were lysed in buffer containing 50 mM Tris–HCl (pH 7.5), 150 mM NaCl, 1 mM EDTA, 1 mM EGTA, 1 mM sodium orthovanadate, 10 mM sodium glycerophosphate, 10 mM sodium pyrophosphate, 0.27 M sucrose, 0.1% (v/v) 2‐mercaptoethanol, 1 mM benzamidine and 0.1 mM PMSF. Lysates were clarified by centrifugation at 16,000 g for 10 min at 4°C. Protein concentration was calculated using Bradford assay (Thermo Scientific). […]

[4] = molecular target: T1, SGK3 (Homo sapiens, UniProt Q96BR1); experiment: Immunoprecipitated endogenous SGK3 kinase activity (Crosstide) and SGK3 phosphorylation from treated cells; format: cell-based; parameters: we immunoprecipitated endogenous SGK3 and assessed protein kinase activity; endogenous in cells; host or cells: ZR-75-1; conditions: 1 h, ZR-75-1 cells
T1 sequence (Q96BR1 1-496): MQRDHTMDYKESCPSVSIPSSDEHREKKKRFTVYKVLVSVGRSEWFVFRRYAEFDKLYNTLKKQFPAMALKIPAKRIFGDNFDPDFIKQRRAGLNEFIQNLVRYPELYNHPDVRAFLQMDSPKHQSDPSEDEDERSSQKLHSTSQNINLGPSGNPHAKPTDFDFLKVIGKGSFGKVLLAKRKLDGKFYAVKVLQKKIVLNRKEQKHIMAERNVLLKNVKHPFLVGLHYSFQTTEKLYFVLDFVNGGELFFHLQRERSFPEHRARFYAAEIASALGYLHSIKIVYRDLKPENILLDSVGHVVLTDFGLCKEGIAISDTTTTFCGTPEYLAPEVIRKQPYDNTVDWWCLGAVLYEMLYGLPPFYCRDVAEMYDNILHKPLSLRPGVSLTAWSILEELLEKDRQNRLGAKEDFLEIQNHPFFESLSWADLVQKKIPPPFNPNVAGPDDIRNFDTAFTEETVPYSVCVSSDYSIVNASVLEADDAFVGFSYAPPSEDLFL
Experimental: Briefly, SGK3, Akt and S6K1 were immunoprecipitated from 1 mg ZR‐75‐1 cell lysate. Immunoprecipitates were washed in sequence with lysis buffer containing high salt concentration (500 mM NaCl), lysis buffer and Buffer A (50 mM Tris pH 7.5, 0.1 mM EGTA). Kinase activity was assessed by measuring [γ‐^32P]ATP incorporation into Crosstide substrate peptide [[…]]. The reactions were carried in 40 μl total volume containing 0.1 mM [γ‐^32P]ATP (400–1,000 cpm/pmol), 10 mM magnesium acetate and 30 μM Crosstide peptide. Reactions were terminated by adding 10 μl 0.1 M EDTA and spotting 40 μl of the resulting reaction mix on P81 paper, which were immediately immersed into 50 mM orthophosphoric acid. Papers were washed at least five times in 50 mM orthophosphoric acid, rinsed in acetone and air‐dried. Radioactivity was quantified by Cerenkov counting. One unit of enzyme activity was defined as amount of enzyme that catalyses incorporation of 1 nmol of [γ‐^32P]ATP into the substrate over 1 min.

Row | IC50 [2] [µM] | reduction of SGK3 activity and phosphorylation ([4]; 0.1 μM 14h) | SGK3 activity and phosphorylation ([4]; 1 μM 14h) | SMILES | reduction of S6K1 activity [1] | phosphorylation of TSC2, S6K1 and S6 protein [3]
1 | – | – | – | NC1(c2ccc(-c3nc4ccn5c(=O)[nH]nc5c4cc3-c3ccccc3)cc2)CCC1 [MK-2206] | ~ 10 fold | –
2 | 0.076 | ~ 80% | undetectable | Nc1n[nH]c2nc(-c3ccc(NS(=O)(=O)c4cc(Cl)ccc4Cl)cc3)cnc12 [14h] | – | suppression of phosphorylation of TSC2, S6K1 and its downstream target S6 protein
